Data set [1] in a line: Thermal properties of plasticized Nylon-12 by DSC. Format: physicochemical. To be noted: for Crystallinity / mp: 10 wt-% plasticizer in RILSAN Nylon-12, Nylon-12 unplasticized. The procedure: (§1) Samples of 5, 10, and 15 wt-% of plasticizer from Example 1 were compounded with Nylon-12 in a Brabender mixer at 210° C. Sheets (30-mils thick) were pressed at 200° C. Tensile specimens were punched and tested on an INSTRON testing machine at a cross-head speed of 2 inches/minute according to ASTM D638 test Method. The flexural properties were tested according to ASTM D790-97B test method. The average tensile and flexural moduli of plasticized Nylon-12 are shown in FIG. 3 and FIG. 4, respectively.
(§2) A sample of 10 wt-% of plasticizer from each of Examples 15-17 was compounded with RILSAN Nylon-12 as described in Example 2. The melting point (mp) and crystallinity was determined by DSC.
(§3) A sample of 10 wt-% of plasticizer from each of Examples 4-5 and 19-20 was compounded with RILSAN Nylon-12 as described in Example 2. The melting point (mp) and crystallinity was determined by DSC.

Data set [2] in a line: Tensile test of pressed films, ASTM D638, INSTRON. Conditions: for Elongation / Tensile Modulus / Tensile Strength / Tensile elastic modulus: 10 wt-% plasticizer in RILSAN Nylon-12 film; for Elongation / Tensile Modulus / Tensile Strength: Nylon-12 unplasticized. The format is physicochemical. The procedure: as §1, §2, §3
A sample of 5-10 wt-% in RILSAN Nylon-12 was compounded with 5-10 wt-% plasticizer from Example 8 under similar conditions as in Example 9. Sheets (30-mils thick) were pressed at 200° C. from pellets. Tensile specimens were punched and tested on an INSTRON testing machine at a cross-head speed of 2 inches/minute according to ASTM D638 test Method.

A short description of data set [3]: Flexural properties of pressed films, ASTM D790-97B. Format: physicochemical. Conditions: for Flexural elastic modulus: 10 wt-% plasticizer in RILSAN Nylon-12 film. The method, then:
as §1

Data set [4] can be described thus: Thermal properties of plasticized Nylon-12 by DSC. Format: physicochemical. For orientation: DSC measures the heat that a sample takes up or gives off during a temperature scan.
[5] abbreviates: 5-10 wt-% plasticizer in RILSAN Nylon-12.
[6] abbreviates: 10 wt-% plasticizer in GRILAMID L25 Nylon-12.
Where [7] appears, read: 5, 10, 15 wt-% plasticizer in Nylon-12.

In the case of `CCCCCCCCC(=O)NCCN(CCNC(=O)CCCCCCCC)C(=O)CCCCCCCC` [Example 5, N,N′,N″-trinonanoyl diethylenetriamine], in data set [1] (Table 3), the Crystallinity was found to be 29.2 % by DSC and the mp worked out at 176.0 °C. Moreover, in data set [2] (Table 3), the Elongation turned out to be 226%, the “Tensile Modulus” value amounted to 74935 psi and the “Tensile Strength” value is 7411 psi.

In data set [1] (Table 3), `CCCCCCCCCC(=O)NCCN(CCNC(=O)CCCCCCCCC)C(=O)CCCCCCCCC` [Example 20, N,N′,N″-tridecanoyl diethylenetriamine] returned a Crystallinity of 31.0 % by DSC and a mp of 175.9 °C. Further, in data set [2] (Table 3), the Elongation was 251%, the “Tensile Modulus” value is 83517 psi and the “Tensile Strength” value was found to be 8034 psi.

On to `CCCCCCCC(=O)NCCN(CCNC(=O)CCCCCCC)C(=O)CCCCCCC` [Example 8, N,N′,N″-trioctanoyl diethylenetriamine], for which, in data set [2] (setting [5]), the “Tensile modulus versus plasticizer content” value is “decreased with increasing plastic content” and the “Tensile strength versus plasticizer content” value was “did not change”. Moreover, the “Tensile strength of base resin GRILAMID L25 after adding plasticizer” value in data set [2] (setting [6]) was “maintained”. In data set [2] (listed as unpurified material), the Tensile elastic modulus is recorded as 82997 psi. In addition, in data set [3] (setting [6]), the “Flexural modulus after adding plasticizer” value is on record as “decreased significantly”. Further, in data set [3] (listed as unpurified material), the Flexural elastic modulus was determined as 72345 psi.

As for `CCCCCCC(=O)NCCN(CCNC(=O)CCCCCC)C(=O)CCCCCC` [Example 4, N,N′,N″-triheptanoyl diethylenetriamine], in data set [1] (Table 3), the Crystallinity was 29.8 % by DSC and the mp was 175.2 °C. In data set [2] (Table 3), the Elongation amounted to 231%, the “Tensile Modulus” value was 66588 psi and the “Tensile Strength” value amounted to 7422 psi.

Consider `CCCCCCC(=O)NCCCN(CCNC(=O)CCCCCC)C(=O)CCCCCC` [Example 16, N-(2-aminoethyl)-1,3-propanediamine heptanoic acid triamide], for which, in data set [1] (Table 2), the Crystallinity was 24.6 % by DSC and the mp is 175.6 °C. For the same molecule, in data set [2] (Table 2), the Elongation is given as 258%, the “Tensile Modulus” value is on record as 83455 psi and the “Tensile Strength” value amounted to 8637 psi.

With `CCCCCCCC(=O)NCCN(CCNC(=O)CCCCCCC)C(=O)CCCCCCC` [Example 13, N,N′,N″-trioctanoyl diethylenetriamine], the melting point is 97.9 °C. Moreover, the Tensile elastic modulus in data set [2] was 85644 psi. For the same molecule, in data set [3], the Flexural elastic modulus came out at 71839 psi.

For the molecule `CCCCCCCC(=O)NCCN(CCNC(=O)CCCCCCC)C(=O)CCCCCCC` [Example 1, N,N′,N″-trioctanoyl diethylenetriamine], the “% Crystallinity” value in data set [1] (5% plasticizer in Nylon-12) is recorded as 28.8%; in data set [1] (15% plasticizer in Nylon-12), 26.2%; in data set [4] (10% plasticizer in Nylon-12) it was 27.8%. Further, the “Tm Melt peak” value in data set [1] (5% plasticizer in Nylon-12) was 176.6 °C; in data set [4] (10% plasticizer in Nylon-12) it was 175.9 °C; in data set [4] (15% plasticizer in Nylon-12) it was 173.9 °C. The ΔHm in data set [1] (10% plasticizer in Nylon-12) was determined as 58.2 J/g; in data set [4] (5% plasticizer in Nylon-12), 60.2 J/g; in data set [4] (15% plasticizer in Nylon-12), 54.7 J/g. Also, in data set [2] (setting [7]), the “Tensile modulus of Nylon-12 after adding the plasticizer” value is reported as “decreased”. In addition, the “Flexural modulus of Nylon-12 after adding the plasticizer” value in data set [3] (setting [7]) is listed as “decreased”.

With `CCCCCCCC(=O)NCCCN(CCNC(=O)CCCCCCC)C(=O)CCCCCCC` [Example 17, N-(2-aminoethyl)-1,3-propanediamine octanoic acid triamide], in data set [1] (Table 2), the Crystallinity is recorded as 25.2 % by DSC and the mp worked out at 175.5 °C. In data set [2] (Table 2), the Elongation amounted to 263%, the “Tensile Modulus” value is reported as 81308 psi and the “Tensile Strength” value is 8871 psi.

In data set [1] (Table 2), `CCCCCCCC(=O)NCCN(CCN(CCNC(=O)CCCCCCC)C(=O)CCCCCCC)C(=O)CCCCCCC` [Example 18, Triethylenetetramine Octanoic Acid Tetramide] had a Crystallinity of 26.7 % by DSC and a mp of 176.2 °C. Also, in data set [2] (Table 2), the Elongation is 238%, the “Tensile Modulus” value worked out at 95902 psi and the “Tensile Strength” value stood at 9079 psi.

For orientation: melting point means the temperature of the solid-liquid transition.

For the origin of these results see patent US10729817B2, “Medical device and plasticized nylon” (Medtronic Vascular, Inc., priority 2013, dated 2020).
